By Kd is commonly meant the equilibrium constant for the complex coming apart.

For one experiment, the system named is hnRNP-E1 mRNA. Put plainly: In vitro translation of hnRNP-E1. In kind it is biochemical, human. The procedure: (§1) In vitro transcription-translation was carried out using the Linked SP6/T7 In Vitro Transcription/Translation Kit (Roche Applied Science) after addition of one of various targeted DNAs—pSPT18-25-hnRNP-E1 DNA, or Pst1-linearized plasmid pSPT18-folate receptor-α, or HPV16 L2 DNA, (0.5 μg/reaction)—to the transcription mix as described. In other experiments, the capacity for perturbing the interaction of hnRNP-E1 with the 25-nt hnRNP-E1 cis-element during in vitro translation was assessed in the presence of either scrambled oligonucleotides (5′-[…]-3′ SEQ ID NO:20) or specific antisense oligonucleotides (5′-[…]-3′ SEQ ID NO:21) generated against the 25-nt hnRNP-E1 mRNA cis-element (GenScript USA, Piscataway, N.J.).

The target of experiment [1] is T1, RNA-protein complexes of GST-hnRNP-E1 and 25-nt hnRNP-E1 mRNA cis-element (Homo sapiens, UniProt Q15365, A205V).
T1 construct: made in house; host or cells: Escherichia coli BL21
The experiment can be described thus: Gel-shift assay: effect of thiols, iron and deferoxamine on RNA-protein complex formation. In kind it is binding. The following applies: fixed L-homocysteine. The procedure:
Other studies assessed the effect of iron(II) or iron(III) on homocysteine-induced RNA-protein interactions.
Studies were conducted to evaluate the effect of iron(II) (as ferrous sulfate heptahydrate) or iron(III) (as ferric chloride hexahydrate) in modulating RNA-protein interactions during gel-shift assays in either the absence or presence of 10-mM glutathione. The iron preparation, either alone or with 50-μM of deferoxamine (DFO) to define the specificity of iron(II), was incubated first with glutathione and hnRNP-E1 before addition of other components of the reaction mixture. […] The samples were analyzed by PAGE and autoradiography overnight followed by densitometric analysis of the signals representing RNA-protein complexes.

The target of experiment [2] is T2, RNA-protein interaction of 25-nt hnRNP-E1 mRNA cis-element and GST-hnRNP-E1 (Homo sapiens, UniProt Q15365, A205V).
T2 construct: made in house; host or cells: Escherichia coli BL21
Put plainly: Influence of thiols or iron(II) on the KD of the RNA-protein interaction. In kind it is binding. The following applies: L-homocysteine present. The procedure: (§2) Specific binding was determined by subtracting values of non-specific binding with GST from those of total binding with GST-hnRNP-E1; (however, in Table 1 and FIG. 6G, non-specific binding using bovine serum albumin (BSA) was subtracted from total binding to GST-hnRNP-E1 to determine specific binding). The KD was calculated from a Scatchard plot using GraphPad Prism 6 from GraphPad Software (San Diego, Calif.), as previously described in the art.

The subject of experiment [3] is 25-nt hnRNP-E1 mRNA cis-element. The experiment can be described thus: Gel-shift assay of hnRNP-E1 proteins with 25-nt hnRNP-E1 mRNA cis-element. The following applies: absence of L-homocysteine. The format is binding, human. As to the method:
(§3) Parenthetically, there was no significant difference in RNA binding to GST-hnRNP-E1 by use of either 32P-RNA probes or 35S-labeled RNA probes used. Other studies assessed the effect of iron(II) or iron(III) on homocysteine-induced RNA-protein interactions.
(§4) Recombinant GST-plasmid DNA, pGST-hnRNP-E1, pGST-hnRNP-E2, and related engineered variant plasmids were transformed into BL21 Escherichia coli from Novagen (Madison, Wis.). After induction by 1 mM isopropyl-1-thio-ß-D-galactopyranoside, the GST-hnRNP-E1 and engineered variant fusion proteins were individually purified using the B-PER GST Fusion Protein Purification Kit (Pierce, Rockford, Ill.). The eluted GST fusion proteins were dialyzed against 500 volumes of buffer to remove excess reducing reagents (such as dithiothreitol (DTT)) and assayed by SDS-PAGE and Western blots using anti-peptide hnRNP-E1 antiserum. Gel shift assays with target RNA were carried out as described.

The subject of experiment [4] is newly synthesized [^35S]folate receptors in placental 1584-HF cells. Put plainly: Biosynthetic rate of folate receptors after protein transfection into placental 1584-HF cells. The following applies: protein transfected in placental 1584-HF cells. The format is cell-based, human. From the text:
(§5) Transfection of purified recombinant wild-type or various mutant hnRNP-E1 proteins into cells was achieved using the Xfect™ Protein Transfection Kit (Clontech, Mountain View, Calif.). Briefly, placental 1584-HF cells in 10-cm dishes at 70-80% confluence were transfected with 2.4-mL serum-free medium and Xfect Protein Transfection Reagent (1.2-mL) containing 20-μg of either wild-type hnRNP-E1-, or highest-affinity (HA)-hnRNP-E1(C293S)-mutant, or wild-type-like hnRNP-E1 (G292A)-mutant proteins and 2-μg of ß-galactosidase at 37° C. for 60-min. After cysteine-starvation for 4-h, an aliquot of cells were assessed for ß-galactosidase activity (to measure the efficiency of co-transfection of ß-galactosidase) and the remaining cells were pulsed with L-[^35S]cysteine (250-μCi) and assessed for specific [^35S]cysteine incorporated into folate receptor to determine the biosynthetic rate of this protein. A similar protocol was employed for analysis of newly synthesized [^35S]hnRNP-E1 using anti-hnRNP-E1 antiserum-coupled agarose and control agarose in order to derive values for specific [^35S]cysteine incorporated into hnRNP-E1 and thereby determine the biosynthetic rate of this protein.

Experiment [5] concerns HPV16 L2 mRNA cis-element. The experiment can be described thus: Gel-shift assay of hnRNP-E1 proteins with HPV16 L2 mRNA. The following applies: absence of reducing agents; versus wild-type and G292A. In kind it is binding, Human Papillomavirus type 16. The procedure:
as §3
(§6) Construction of plasmids for generation of HPV16 L2 RNA, gel-shift and in vitro translation studies were carried as described with additional treatments shown in FIGS. 10A-10D

A further experiment relates to folate receptor-α mRNA. Put plainly: In vitro translation of folate receptor-α. The format is biochemical, human. The following applies: presence of 2-mM NEM. The procedure:
In vitro transcription-translation was carried out using the Linked SP6/T7 In Vitro Transcription/Translation Kit (Roche Applied Science) after addition of one of various targeted DNAs—pSPT18-25-hnRNP-E1 DNA, or Pst1-linearized plasmid pSPT18-folate receptor-α, or HPV16 L2 DNA, (0.5 μg/reaction)—to the transcription mix as described. In other experiments, the capacity for perturbing the interaction of hnRNP-E1 with the 25-nt hnRNP-E1 cis-element during in vitro translation was assessed in the presence of either scrambled oligonucleotides (5′-GCGTCGCTCGCTTCGCACGTGCGCC-3′ SEQ ID NO:20) or specific antisense oligonucleotides (5′-GGG AGC GAG CGG GCG GGA G-3′ SEQ ID NO:21) generated against the 25-nt hnRNP-E1 mRNA cis-element (GenScript USA, Piscataway, N.J.).

The subject of experiment [6] is newly synthesized [^35S]hnRNP-E1 in placental 1584-HF cells. Put plainly: Biosynthetic rate of hnRNP-E1 after protein transfection into placental 1584-HF cells. In kind it is cell-based, human. The following applies: protein transfected in placental 1584-HF cells.
From the text: as §5

Another experiment deals with HPV16 L2 RNA. The experiment can be described thus: In vitro translation of HPV16 L2 protein. In kind it is biochemical, Human Papillomavirus type 16. The following applies: after quenching excess ß-ME by NEM (2 mM). As to the method:
as §1, §6

The target in experiment [7] is [^35S]25-nt hnRNP-E1 mRNA cis-element. Put plainly: Dissociation constant (KD) of GST-hnRNP-E1 or its mutant proteins for the 25-nt hnRNP-E1 mRNA cis-element. The format is binding, human. The following applies: L-Homocysteine 0 μM. The procedure: (§7) Methods for testing the ability of an engineered hnRNP-E1 variant polypeptide to bind to an RNA comprising the sequence of SEQ ID NO:6 are known in the art. Such methods include, but are not limited to, RNA electrophoretic mobility shift assays, as exemplified herein, RNA pull-down assays, and oligonucleotide-targeted RNase H protection assays. Such assays are conducted in the presence or absence of homocysteine to determine the RNA-binding dependence of any particular hnRNP-E1 polypeptide tested on the presence of homocysteine. […] Additional methods are outline in Tang et al. (“Incrimination of heterogeneous nuclear ribonucleoprotein E1 (hnRNP-E1) as a candidate sensor of physiological folate deficiency.” J Biol Chem. 2011; 286(45):39100-39115), which is incorporated herein in its entirety.
as §2

Experiment [8] has as its system 18-nt folate receptor-α mRNA cis-element. The experiment can be described thus: Gel-shift assay of hnRNP-E1 proteins with 18-nt folate receptor-α mRNA cis-element. The format is binding, human. The following applies: absence of homocysteine or other reducing agent. As to the method: as §3, §4
In experiment [9] the target is [^35S]18-nt folate receptor-α mRNA cis-element. Put plainly: Dissociation constant (KD) of GST-hnRNP-E1 or its mutant proteins for the 18-nt folate receptor-α mRNA cis-element. In kind it is binding, human. The following applies: L-Homocysteine 0 μM; listed as (HA)-hnRNP-E1(C293 S)-mutant. The procedure:
as §7, §2

Experiment [10] concerns 18-nt folate receptor-α mRNA cis-element-linked CAT reporter. Put plainly: CAT reporter driven by 18-nt folate receptor-α mRNA cis-element, co-transfected with hnRNP-E1 plasmids in HeLa-IU1-HF cells. The following applies: pSV-β-gal normalization. In kind it is cell-based, human. As to the method: A plasmid containing CAT reporter DNA driven by an 18-nucleotide folate receptor-α mRNA cis-element, was constructed as previously described. Briefly, HeLa-IU1-HF cells were grown to 70-80% confluence and then co-transfected with CAT reporter DNA driven by an 18-nucleotide folate receptor-α mRNA cis-element and various construct combinations of either wild-type and mutant hnRNP-E1 plasmids using X-tremeGENE DNA transfection reagent (Roche Applied Science). The transfection reactions were set up with 6-μg DNA and 12-μL XtremeGENE DNA transfection reagent for each well. In these transfection experiments, pSV-ß-gal was used as an internal control to monitor the efficiency of transfection of cells. After 48 h cells were harvested for protein determination using the BCA protein assay (Pierce); ß-galactosidase activity by the ß-galactosidase chemiluminescent assay (Roche Diagnostics); and CAT activity using a CAT ELISA kit (Roche Diagnostics). All experiments were carried out 4 times with 3 replications per treatment. The data from non-transfected cells was used as a background and subtracted from that obtained with transfected cells. All data were normalized using the internal standard and protein concentration for each treatment.

Setting [11] is: listed as (HA)-hnRNP-E1(C293S)-mutant.

“And” between values parts separate entries of the source, which are not always exact repeats. Equal values may be shown once.

T1 sequence (Q15365 whole entry A205V, one chain of several): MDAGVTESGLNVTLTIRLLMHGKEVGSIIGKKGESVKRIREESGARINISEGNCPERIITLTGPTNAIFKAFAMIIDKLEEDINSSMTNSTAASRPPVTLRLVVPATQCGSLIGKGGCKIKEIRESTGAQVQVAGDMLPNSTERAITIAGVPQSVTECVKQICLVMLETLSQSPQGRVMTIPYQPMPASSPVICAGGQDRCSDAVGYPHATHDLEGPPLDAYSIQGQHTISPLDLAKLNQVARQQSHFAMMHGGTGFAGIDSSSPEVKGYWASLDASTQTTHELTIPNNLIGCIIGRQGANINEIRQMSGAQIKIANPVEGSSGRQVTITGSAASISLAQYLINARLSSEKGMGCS
T2 sequence (Q15365 whole entry A205V): as the sequence (Q15365 whole entry A205V, one chain of several) above

As to `O.O.O.O.O.O.O.O=S(=O)([O-])[O-].[Fe+2]` [iron(II), ferrous sulfate heptahydrate], the “effect on in vitro translation of hnRNP-E1” value with hnRNP-E1 mRNA (agent added to translation mixture (4.1-mM ß-ME)) is “dose-dependent impact in quenching the in vitro translation of hnRNP-E1”. In experiment [1] (10-mM glutathione), the “effect on RNA-complex formation” value is “comparable dose-dependent reduction in RNA-complex formation”. The “effect on formation of RNA-protein complexes” value in experiment [1] (no glutathione) is given as “dose-dependent inhibitory effect”. For the same molecule, in [2], the “RNA-protein binding affinity (KD)” value is “dose-dependent reduction in RNA-protein binding affinity”.
Take “GST-hnRNP-E1(C293S): highest-affinity mutant, cysteine-293 to serine in the KH3 domain of hnRNP-E1 (SEQ ID NO:2)”: in the experiment with hnRNP-E1 mRNA (protein added after neutralizing ß-ME by N-ethylmaleimide), the “translation of hnRNP-E1 in vitro” value was “markedly stimulated translation of hnRNP-E1 in vitro”. Moreover, the RNA-protein gel-shift signal entry in experiment [3] is recorded as “strong signal”. For the same molecule, the “[^35S]cysteine-folate receptor” value turned out to be 6.62 ± 0.74 c fmol/mg protein/h in experiment [4] and 6.62 fmol/mg protein/h in [4] (setting [11]). The “increase of [^35S]folate receptors over controls” value in [4] (over wild-type and G292A controls) is reported as roughly 4 fold. Further, the “interaction with HPV16 L2 mRNA on gel-shift assays” value in experiment [5] is listed as “greater interaction”. Further, in the experiment with folate receptor-α mRNA, the “translation of folate receptor-α” value is on record as “maximally increased”. The “[^35S]cysteine-hnRNP-E1” value is given as 6.70 ± 1.74 c fmol/mg protein/h in experiment [6] and 6.70 fmol/mg protein/h in experiment [6] (setting [11]). Further, the “increase in the rate of biosynthesis of [^35S]hnRNP-E1” value in experiment [6] is “over 6 fold”. In the experiment with HPV16 L2 RNA, the “HPV16 L2 protein signal” value is “progressive reduction in signal”. The Kd is 0.39 nM in experiment [7]; 0.27 nM and 0.2 nM in experiment [9]. For the same molecule, the RNA-protein signal result in [8] is recorded as “strongest RNA-protein signal”. The “folate receptor-α cis-element-linked CAT activity versus wild-type hnRNP-E1 or G292A control” value in experiment [10] is “two and one-half times stronger”.

The values are drawn from patent publication US10093706B2, “Dominant positive hnRNP-E1 polypeptide compositions and methods” (Indiana University Research and Technology Corporation, priority 2017, dated 2018).
